Columns and labels:
[1] = system: P. aeruginosa; details: cited from earlier work
[2] = system: P. aeruginosa; experiment: PqsE-dependent pyocyanin production; assay type: cell-based, Pseudomonas aeruginosa; details: 100 μM, overnight at 37°C, OD695
[3] = system: P. aeruginosa; experiment: Mass spectrometry of compound levels in cell-free culture fluid and cell lysate; assay type: cell-based, Pseudomonas aeruginosa; details: positive control

Row | Molecule | effect on in vivo pyocyanin production levels [1] | effect on pyocyanin production [2] | concentration in cell lysate over time [3] | concentration in cell-free culture fluid over time [3]
1 | O=C(O)c1ccccc1-c1cccnc1 [Compound C1, 2-(pyridin-3’-yl) benzoic acid] | does not affect in vivo pyocyanin production levels |  |  | 
2 | meta-bromo-thiolactone [mBTL] |  | known inhibitor of pyocyanin production | increased | progressively decreased

— PMC7036018 (ACS chemical biology, 2020)
